The record followed here is ChEMBL document CHEMBL1146095, “Modeling the preferred shapes of polyamine transporter ligands and dihydromotuporamine-C mimics: shovel versus hoe” (J Med Chem, 2006).

Each structure is given as a SMILES string.

One test concerns CHO-MG. The test can be described thus: Cytotoxicity against CHO-MG cell line. Format: functional, cell-based. Conditions: Cricetulus griseus.
The subject of another test is CHO. In words: Cytotoxicity against CHO cell line. The test is classed as functional, cell-based. Conditions: Cricetulus griseus.
Test [1] is described as follows: Selectivity for CHO cells over CHO-MG cells. Format: functional.
Test [2] concerns Mammalian polyamine transporter. In words: Inhibition of [14C]spermidine uptake into polyamine transporter expressed in L1210 cells. Format: functional, cell-based, Mus musculus.

As to `CCN(CCCNCCCN)Cc1c2ccccc2cc2ccccc12.Cl.Cl.Cl`, the IC50 in the test on CHO-MG is 4 µM; in the test on CHO, 5.3 µM. The “Ratio IC50” value in test [1] stood at 0.8. The compound further gave a Ki in test [2] of 23.5 µM.

A word on the IC50: it is the midpoint of a concentration-inhibition curve. One may read the Ki as a dissociation constant, usually derived from enzyme kinetics or from competition with a known ligand.
